# Key:
# [1] = Summary of the strongest expressions over the administration routes; details: strongest level of the three administrations
# Description: (§1) Finally, the expression levels of lipid nanoparticles with a plurality of tertiary amine groups from the embodiments of the present disclosure after intramuscular injection, white adipocyte administration, and intraperitoneal injection are summarized, and compared with lipid nanoparticles prepared from commercially available cationic lipids MC3 and SM102. […] However, the expression rates of the phosphatidylamine lipids with a plurality of tertiary amine groups from embodiments of the present disclosure are higher than that of SM102.
# [2] = tested on: Fluc-mRNA (luciferase expression); experiment: In vivo transfection efficiency of Fluc-mRNA lipid nanoparticles after intramuscular injection; design: species or system mice; details: for Intramuscular injection (PL/MC3) expression strength level: ratio of expression PL/MC3; for in vivo transfection (expression, FIG. 5): weight ratio lipid nanoparticle/RNA 10:1, DOPE or DSPC group; for in vivo transfection (expression, FIG. 5) / expression in vivo compared with control MC3: 3 μg Fluc-mRNA/mouse; for expression in vivo compared with control MC3: DOPE group, weight ratio 10:1
# Method: 6 h after intramuscular injection of mRNA LNPs, mice were injected intraperitoneally with 0.2 mL […] (20 mg/mL PBS solution). After 10 min, mice were anesthetized with isoflurane in oxygen in a ventilated anesthesia room and imaged with an imaging system (IVIS, PerkinElmer), and luminescence was quantified using Living Image software (PerkinElmer).
# white adipocyte = experiment: White adipocyte administration, expression relative to SM102; format: cell-based; details: for White adipocyte administration (PL/SM102) expression strength level: ratio of expression PL/SM102; for expression compared with control SM102: white adipocyte administration
# Description: as §1
# adipose tissue = experiment: Intraperitoneal injection of Fluc-mRNA LNPs, expression and distribution; format: in vivo, mice; details: for Intraperitoneal injection (PL/SM102) expression strength level: ratio of expression PL/SM102; for expression compared with control SM102: intraperitoneal injection
# Method: FIG. 10 illustrates the effect of Fluc-mRNA LNPs composed of different structural cationic lipids on the mRNA delivery efficiency after intraperitoneal administration according to some embodiments of the present disclosure. Targeting and expression of PL lipids on adipose tissue after intraperitoneal administration is also evaluated. […] That is to say, the PL lipid structure with the plurality of tertiary amino group structures may enhance the selective targeting of visceral adipocytes. […]
# as §1
SMILES,Summary of the strongest expressions [1],Intramuscular injection (PL/MC3) expression strength level [2],"in vivo transfection (expression, FIG. 5) [2]",White adipocyte administration (PL/SM102) expression strength level (white adipocyte),Intraperitoneal injection (PL/SM102) expression strength level (adipose tissue),expression compared with control SM102 (adipose tissue),expression compared with control SM102 (white adipocyte),expression in vivo compared with control MC3 [2]
CCCCCCCC/C=C\CCOC(=O)CCCOP(=O)(NCCN(CCCCCCCCCCCC)CCCN(C)C)OCCCC(=O)OCC/C=C\CCCCCCCC [PL13],A (A: ≥2),A (A: ≥2),expressed,D (D: <0.1),,,,
CCCCC/C=C\C/C=C\CCCCCCCCOP(=O)(NCCCN(CC(O)CCCCCCCCCC)CC(O)CN(CC(O)CCCCCCCCCC)CC(O)CCCCCCCCCC)OCCCCCCCC/C=C\C/C=C\CCCCC (stereo not shown) [PL19],C (C: ≥0.1 and <1),,,C (C: ≥0.1 and <1),D (D: <0.1),,,
CCCCC/C=C\C/C=C\CCCCCCCCOP(=O)(NCCN(CCN(CCN(C)C)CC(O)CCCCCCCCCC)CC(O)CCCCCCCCCC)OCCCCCCCC/C=C\C/C=C\CCCCC (stereo not shown) [PL20],B (B: ≥1 and <2),,,B (B: ≥1 and <2),B (B: ≥1 and <2),superior to that of the control SM102,superior to that of the control SM102,
CCCCC/C=C\C/C=C\CCCCCCCCOP(=O)(NCCCN(CCCCCCCCCCCC)CCc1ccc(CCN(C)C)cc1)OCCCCCCCC/C=C\C/C=C\CCCCC [PL21],B (B: ≥1 and <2),,,B (B: ≥1 and <2),C (C: ≥0.1 and <1),,superior to that of the control SM102,
CCCCC/C=C\C/C=C\CCCCCCCCOP(=O)(NCCCN(CCCCCCCCCCCC)CCc1ccc(CCN(CCCCCCCCCCCC)CCCCCCCCCCCC)cc1)OCCCCCCCC/C=C\C/C=C\CCCCC [PL22],C (C: ≥0.1 and <1),,,C (C: ≥0.1 and <1),D (D: <0.1),,,
CCCCC/C=C\C/C=C\CCCCCCCCOP(=O)(NCCN1CCN(CCOC(=O)CCN(CCCCCCCCCCCC)CCCCCCCCCCCC)CC1)OCCCCCCCC/C=C\C/C=C\CCCCC [PL26],A (A: ≥2),A (A: ≥2),expressed,C (C: ≥0.1 and <1),,,,better than that of control MC3
CCCCC/C=C\C/C=C\CCCCCCCCOP(=O)(NCCCN1CCN(CCCN(CCCCCCC(=O)OC(CCCCCCCC)CCCCCCCC)CCCCCCC(=O)OC(CCCCCCCC)CCCCCCCC)CC1)OCCCCCCCC/C=C\C/C=C\CCCCC [PL28],A (A: ≥2),A (A: ≥2),expressed,C (C: ≥0.1 and <1),,,,
CCCCC/C=C\C/C=C\CCCCCCCCOP(=O)(NCCCN1CCN(CCCN(CCCCCCC(=O)OC(CC)CCCCCCCC)CCCCCCC(=O)OC(CC)CCCCCCCC)CC1)OCCCCCCCC/C=C\C/C=C\CCCCC (stereo not shown) [PL29],A (A: ≥2),A (A: ≥2),expressed,B (B: ≥1 and <2),,,superior to that of the control SM102,better than that of control MC3
CCCCC/C=C\C/C=C\CCCCCCCCOP(=O)(NCCCN1CCN(CCCN(CCCCCCCCCCCC)CCCCCCCCCCCC)CC1)OCCCCCCCC(=O)OC(CCCCCCCC)CCCCCCCC (stereo not shown) [PL30],A (A: ≥2),A (A: ≥2),expressed,D (D: <0.1),,,,better than that of control MC3
CCCCCCCCCCCCN(CCCCCCCCCCCC)CCCN1CCN(CCCNP(=O)(OCCCCCCCC(=O)OC(CCCCCCCC)CCCCCCCC)OCCCCCCCC(=O)OC(CCCCCCCC)CCCCCCCC)CC1 [PL31],A (A: ≥2),A (A: ≥2),expressed,D (D: <0.1),,,,better than that of control MC3
CCCCCCCCCCCCN(CCCCCCCCCCCC)CCCN1CCN(CCCNP(=O)(OCCCCCCCC(=O)OC(CC)CCCCCCCC)OCCCCCCCC(=O)OC(CC)CCCCCCCC)CC1 (stereo not shown) [PL32],A (A: ≥2),A (A: ≥2),expressed,,,,,
CCCCCCCCCCCCN(CCCCCCCCCCCC)CCCN1CCN(CCCNP(=O)(OCC(CCCCCC)CCCCCCCC)OCC(CCCCCC)CCCCCCCC)CC1 (stereo not shown) [PL33],A (A: ≥2),A (A: ≥2),expressed,,,,,
CCCCCCCCCCC(CCCCCCCCCC)CN(CCCN1CCN(CCCNP(=O)(OCCCCCCCC(=O)OC(CCCCCCCC)CCCCCCCC)OCCCCCCCC(=O)OC(CCCCCCCC)CCCCCCCC)CC1)CC(CCCCCCCCCC)CCCCCCCCCC [PL36],C (C: ≥0.1 and <1),,,C (C: ≥0.1 and <1),,,,
CCCCCCCCC(CCCCCCCC)OC(=O)CCCCCCCOP(=O)(NCCCN1CCN(CCCN(CCCCCCCC(=O)OC(CCCCCCCC)CCCCCCCC)CCCCCCCC(=O)OC(CCCCCCCC)CCCCCCCC)CC1)OCCCCCCCC(=O)OC(CCCCCCCC)CCCCCCCC [PL38],C (C: ≥0.1 and <1),,,C (C: ≥0.1 and <1),D (D: <0.1),,,
CCCCCCCCCCC(CCCCCCCCCC)CNCCCN1CCN(CCCNP(=O)(OCCCCCCCC(=O)OC(CCCCCCCC)CCCCCCCC)OCCCCCCCC(=O)OC(CCCCCCCC)CCCCCCCC)CC1 [PL41],A (A: ≥2),A (A: ≥2),expressed,C (C: ≥0.1 and <1),,,,
CCCCC/C=C\C/C=C\CCCCCCCCOP(=O)(NCCCN1CCN(CCCNCC(CCCCCC)CCCCCCCC)CC1)OCCCCCCCC/C=C\C/C=C\CCCCC (stereo not shown) [PL44],C (C: ≥0.1 and <1),C (C: ≥0.1 and <1),,C (C: ≥0.1 and <1),,,,
CCCCCCCCC(CCCCCC)CNCCCN1CCN(CCCNP(=O)(OCC(CCCCCC)CCCCCCCC)OCC(CCCCCC)CCCCCCCC)CC1 (stereo not shown) [PL45],C (C: ≥0.1 and <1),C (C: ≥0.1 and <1),,C (C: ≥0.1 and <1),,,,
CCCCC/C=C\C/C=C\C/C=C\C/C=C\CCCC(=O)OCCCCCCOP(=O)(NCCCN1CCN(CCCN(CCCCCCCCCCCC)CCCCCCCCCCCC)CC1)OCCCCCCOC(=O)CCC/C=C\C/C=C\C/C=C\C/C=C\CCCCC [PL59],A (A: ≥2),,,A (A: ≥2),D (D: <0.1),,superior to that of the control SM102,
CCCCC/C=C\C/C=C\C/C=C\CCCCC(=O)OCCOP(=O)(NCCCN1CCN(CCCN(CCCCCCCCCCCC)CCCCCCCCCCCC)CC1)OCCOC(=O)CCCC/C=C\C/C=C\C/C=C\CCCCC [PL93],A (A: ≥2),,,,A (A: ≥2),superior to that of the control SM102,,
CCCCC/C=C\C/C=C\C/C=C\CCCCCOP(=O)(NCCCN1CCN(CCCN(CCCCCCCCCCCC)CCCCCCCCCCCC)CC1)OCCCCC/C=C\C/C=C\C/C=C\CCCCC [PL94],A (A: ≥2),,,,A (A: ≥2),superior to that of the control SM102,,
CCCCCCCCCCCCN(CCCCCCCCCCCC)CCCN1CCN(CCCNP(=O)(OCCC(C)CCCC(C)CCCC(C)CCCC(C)C)OCCC(C)CCCC(C)CCCC(C)CCCC(C)C)CC1 (stereo not shown) [PL95],A (A: ≥2),,,,A (A: ≥2),superior to that of the control SM102,,
CCCCCCCCCCCCN(CCCCCCCCCCCC)CCCN1CCN(CCCNP(=O)(OCCOC(=O)CC(C)CCCC(C)CCCC(C)CCCC(C)C)OCCOC(=O)CC(C)CCCC(C)CCCC(C)CCCC(C)C)CC1 (stereo not shown) [PL96],C (C: ≥0.1 and <1),,,,C (C: ≥0.1 and <1),,,
CCCCCCCCCCCCN(CCCCCCCCCCCC)CCCN1CCN(CCCNP(=O)(OCCCCCCCC(=O)OC(C)CC(=O)OCC)OCCCCCCCC(=O)OC(C)CC(=O)OCC)CC1 (stereo not shown) [PL97],C (C: ≥0.1 and <1),,,,C (C: ≥0.1 and <1),,,
CCCCC/C=C\C/C=C\CCCCCCCCOP(=O)(NCCCN1CCN(CCCN(CCCCCCCCCCCC)CCCCCCCCCCCC)CC1)OCCCCCCCC(=O)OC(CC)CCCCCCCC (stereo not shown) [PL103],A (A: ≥2),A (A: ≥2),expressed,,,,,

# — patent US20260085081A1, “PHOSPHATIDYLAMINE COMPOUNDS INCLUDING A PLURALITY OF TERTIARY AMINO GROUP STRUCTURES AND COMPOSITIONS THEREOF” (PEKING UNIVERSITY, priority 2022, published 2026)
